Paper PMC6874179, “Development of Macrocycle Kinase Inhibitors for ALK2 Using Fibrodysplasia Ossificans Progressiva‐Derived Endothelial Cells” (JBMR Plus, 2019)

What was measured:
Type in all cases: biochemical
[1] = target: T1, RET_R813Q (Homo sapiens, UniProt P07949, R813Q); experiment: Proqinase Kinase profiling; conditions: read-out: % inhibition at 100nM
T1 construct: purchased DiscoverX

[2] = target: T2, SGK1 (Homo sapiens, UniProt O00141); experiment: Proqinase Kinase profiling; conditions: read-out: % inhibition at 100nM
T2 construct: purchased DiscoverX

[3] = target: T3, LRRK2_R1441C (Homo sapiens, UniProt Q5S007, R1441C); experiment: Proqinase Kinase profiling; conditions: read-out: % inhibition at 100nM
T3 construct: purchased DiscoverX
T3 sequence (Q5S007 whole entry R1441C): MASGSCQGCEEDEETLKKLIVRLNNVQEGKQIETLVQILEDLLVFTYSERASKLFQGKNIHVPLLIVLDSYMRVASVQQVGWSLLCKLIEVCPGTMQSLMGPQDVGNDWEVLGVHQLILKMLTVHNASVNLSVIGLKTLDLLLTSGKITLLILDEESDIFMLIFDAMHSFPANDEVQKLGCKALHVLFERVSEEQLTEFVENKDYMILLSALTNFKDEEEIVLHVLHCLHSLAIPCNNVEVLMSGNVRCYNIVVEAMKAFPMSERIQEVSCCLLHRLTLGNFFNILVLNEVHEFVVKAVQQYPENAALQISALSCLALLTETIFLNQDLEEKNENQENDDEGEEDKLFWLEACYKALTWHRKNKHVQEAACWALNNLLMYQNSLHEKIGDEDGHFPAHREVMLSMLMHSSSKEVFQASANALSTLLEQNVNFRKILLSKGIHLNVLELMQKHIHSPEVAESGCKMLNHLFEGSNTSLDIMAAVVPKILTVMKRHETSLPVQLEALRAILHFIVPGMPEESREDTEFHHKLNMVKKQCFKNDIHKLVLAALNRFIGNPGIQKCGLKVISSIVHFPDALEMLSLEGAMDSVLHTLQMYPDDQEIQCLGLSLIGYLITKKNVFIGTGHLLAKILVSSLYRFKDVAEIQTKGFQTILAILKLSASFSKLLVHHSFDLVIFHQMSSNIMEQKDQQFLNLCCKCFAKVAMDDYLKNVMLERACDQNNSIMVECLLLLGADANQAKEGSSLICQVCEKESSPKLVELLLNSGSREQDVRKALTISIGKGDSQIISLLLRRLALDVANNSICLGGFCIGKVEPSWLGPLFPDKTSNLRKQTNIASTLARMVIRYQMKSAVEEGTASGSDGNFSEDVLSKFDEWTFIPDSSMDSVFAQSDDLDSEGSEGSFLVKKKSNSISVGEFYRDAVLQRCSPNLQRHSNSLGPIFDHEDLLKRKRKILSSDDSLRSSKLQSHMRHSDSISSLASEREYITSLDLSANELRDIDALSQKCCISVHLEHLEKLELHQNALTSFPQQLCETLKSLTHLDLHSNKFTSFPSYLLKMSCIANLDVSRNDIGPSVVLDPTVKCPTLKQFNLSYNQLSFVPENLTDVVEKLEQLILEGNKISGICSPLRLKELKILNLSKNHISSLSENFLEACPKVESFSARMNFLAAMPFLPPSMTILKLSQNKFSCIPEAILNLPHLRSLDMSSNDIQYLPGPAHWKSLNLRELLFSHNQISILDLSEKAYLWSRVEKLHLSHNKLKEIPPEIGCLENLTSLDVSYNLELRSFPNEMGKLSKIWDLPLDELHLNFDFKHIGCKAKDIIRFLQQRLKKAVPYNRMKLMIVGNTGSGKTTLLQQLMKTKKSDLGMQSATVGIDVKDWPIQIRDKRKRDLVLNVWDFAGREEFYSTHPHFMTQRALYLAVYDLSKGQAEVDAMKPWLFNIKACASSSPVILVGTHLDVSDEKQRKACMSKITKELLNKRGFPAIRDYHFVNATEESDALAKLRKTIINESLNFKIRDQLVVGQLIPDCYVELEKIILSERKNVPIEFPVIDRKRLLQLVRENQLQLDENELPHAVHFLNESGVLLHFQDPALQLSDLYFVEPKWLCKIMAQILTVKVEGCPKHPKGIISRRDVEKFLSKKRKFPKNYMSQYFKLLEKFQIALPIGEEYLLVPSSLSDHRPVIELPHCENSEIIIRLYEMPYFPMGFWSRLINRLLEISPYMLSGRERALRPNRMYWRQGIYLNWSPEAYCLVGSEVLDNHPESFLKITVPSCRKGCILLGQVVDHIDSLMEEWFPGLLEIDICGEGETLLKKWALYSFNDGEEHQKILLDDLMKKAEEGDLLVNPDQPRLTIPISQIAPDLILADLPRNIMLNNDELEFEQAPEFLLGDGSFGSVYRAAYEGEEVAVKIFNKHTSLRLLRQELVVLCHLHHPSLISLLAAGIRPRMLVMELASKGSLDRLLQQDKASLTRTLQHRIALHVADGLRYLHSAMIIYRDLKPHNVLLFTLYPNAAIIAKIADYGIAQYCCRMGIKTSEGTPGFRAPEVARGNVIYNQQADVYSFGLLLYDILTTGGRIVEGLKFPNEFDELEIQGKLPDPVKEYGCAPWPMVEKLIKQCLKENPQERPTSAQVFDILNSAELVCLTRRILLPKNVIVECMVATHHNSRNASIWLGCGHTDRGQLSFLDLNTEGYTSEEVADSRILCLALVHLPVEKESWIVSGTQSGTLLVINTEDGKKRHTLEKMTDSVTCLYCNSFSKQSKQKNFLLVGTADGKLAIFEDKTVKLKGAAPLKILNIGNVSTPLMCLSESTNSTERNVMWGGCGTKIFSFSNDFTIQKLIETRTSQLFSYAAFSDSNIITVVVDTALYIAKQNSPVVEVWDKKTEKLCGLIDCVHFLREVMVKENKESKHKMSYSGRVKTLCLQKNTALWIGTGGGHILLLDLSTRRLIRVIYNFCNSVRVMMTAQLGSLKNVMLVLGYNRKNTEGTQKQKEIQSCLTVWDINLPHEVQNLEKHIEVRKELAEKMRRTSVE

[4] = target: T4, TSSK2 (Homo sapiens, UniProt Q96PF2); experiment: Proqinase Kinase profiling; conditions: read-out: % inhibition at 100nM
T4 construct: purchased DiscoverX

[5] = target: T5, AXL (Homo sapiens, UniProt P30530); experiment: Proqinase Kinase profiling; conditions: read-out: % inhibition at 100nM
T5 construct: purchased DiscoverX

[6] = target: T6, ALK (Homo sapiens, UniProt Q9UM73); experiment: Proqinase Kinase profiling; conditions: read-out: % inhibition at 100nM
T6 construct: purchased DiscoverX

[7] = target: T7, CLK1 (Homo sapiens, UniProt P49759); experiment: Proqinase Kinase profiling; conditions: read-out: % inhibition at 100nM
T7 construct: purchased DiscoverX

[8] = target: T8, CDK1_cyclinB (Homo sapiens, UniProt P06493); experiment: Proqinase Kinase profiling; conditions: read-out: % inhibition at 100nM
T8 construct: purchased DiscoverX

[9] = target: T9, NEK3 (Homo sapiens, UniProt P51956); experiment: Proqinase Kinase profiling; conditions: read-out: % inhibition at 100nM
T9 construct: purchased DiscoverX

[10] = target: T10, ROS1 (Homo sapiens, UniProt P08922); experiment: Proqinase Kinase profiling; conditions: read-out: % inhibition at 100nM
T10 construct: purchased DiscoverX

[11] = target: T11, PAK7 (Homo sapiens, UniProt Q9P286); experiment: Proqinase Kinase profiling; conditions: read-out: % inhibition at 100nM
T11 construct: purchased DiscoverX

[12] = target: T12, PRKCZ (Homo sapiens, UniProt Q05513); experiment: Proqinase Kinase profiling; conditions: read-out: % inhibition at 100nM
T12 construct: purchased DiscoverX

[13] = target: T13, DYRK4 (Homo sapiens, UniProt Q9NR20); experiment: Proqinase Kinase profiling; conditions: read-out: % inhibition at 100nM
T13 construct: purchased DiscoverX

[14] = target: T14, CLK3 (Homo sapiens, UniProt P49761); experiment: Proqinase Kinase profiling; conditions: read-out: % inhibition at 100nM
T14 construct: purchased DiscoverX

[15] = target: T15, TAOK2 (Homo sapiens, UniProt Q9UL54); experiment: Proqinase Kinase profiling; conditions: read-out: % inhibition at 100nM
T15 construct: purchased DiscoverX

[16] = target: T16, CAMKK2 (Homo sapiens, UniProt Q96RR4); experiment: Proqinase Kinase profiling; conditions: read-out: % inhibition at 100nM
T16 construct: purchased DiscoverX

[17] = target: T17, PRKCD (Homo sapiens, UniProt Q05655); experiment: Proqinase Kinase profiling; conditions: read-out: % inhibition at 100nM
T17 construct: purchased DiscoverX

[18] = target: T18, MAPK10 (Homo sapiens, UniProt P53779); experiment: Proqinase Kinase profiling; conditions: read-out: % inhibition at 100nM
T18 construct: purchased DiscoverX

[19] = target: T19, DAPK1 (Homo sapiens, UniProt P53355); experiment: Proqinase Kinase profiling; conditions: read-out: % inhibition at 100nM
T19 construct: purchased DiscoverX

[20] = target: T20, PAK1 (Homo sapiens, UniProt Q13153); experiment: Proqinase Kinase profiling; conditions: read-out: % inhibition at 100nM
T20 construct: purchased DiscoverX

[21] = target: T21, TAOK3 (Homo sapiens, UniProt Q9H2K8); experiment: Proqinase Kinase profiling; conditions: read-out: % inhibition at 100nM
T21 construct: purchased DiscoverX

[22] = target: T22, FGFR3_K650M (Homo sapiens, UniProt P22607, K650M); experiment: Proqinase Kinase profiling; conditions: read-out: % inhibition at 100nM
T22 construct: purchased DiscoverX

[23] = target: T23, PKN2 (Homo sapiens, UniProt Q16513); experiment: Proqinase Kinase profiling; conditions: read-out: % inhibition at 100nM
T23 construct: purchased DiscoverX

[24] = target: T24, ABL1_F317I (Homo sapiens, UniProt P00519, F317I); experiment: Proqinase Kinase profiling; conditions: read-out: % inhibition at 100nM
T24 construct: purchased DiscoverX

[25] = target: T25, TYK2 (Homo sapiens, UniProt P29597); experiment: Proqinase Kinase profiling; conditions: read-out: % inhibition at 100nM
T25 construct: purchased DiscoverX

[26] = target: T26, MYLK2 (Homo sapiens, UniProt Q9H1R3); experiment: Proqinase Kinase profiling; conditions: read-out: % inhibition at 100nM
T26 construct: purchased DiscoverX

[27] = target: T27, KIT (Homo sapiens, UniProt P10721); experiment: Proqinase Kinase profiling; conditions: read-out: % inhibition at 100nM
T27 construct: purchased DiscoverX

[28] = target: T28, INSR (Homo sapiens, UniProt P06213); experiment: Proqinase Kinase profiling; conditions: read-out: % inhibition at 100nM
T28 construct: purchased DiscoverX

[29] = target: T29, MAPK11 (Homo sapiens, UniProt Q15759); experiment: Proqinase Kinase profiling; conditions: read-out: % inhibition at 100nM
T29 construct: purchased DiscoverX

[30] = target: T30, GRK6 (Homo sapiens, UniProt P43250); experiment: Proqinase Kinase profiling; conditions: read-out: % inhibition at 100nM
T30 construct: purchased DiscoverX

[31] = target: T31, PBK (Homo sapiens, UniProt Q96KB5); experiment: Proqinase Kinase profiling; conditions: read-out: % inhibition at 100nM
T31 construct: purchased DiscoverX

[32] = target: T32, TEK (Homo sapiens, UniProt Q02763); experiment: Proqinase Kinase profiling; conditions: read-out: % inhibition at 100nM
T32 construct: purchased DiscoverX

[33] = target: T33, RPS6KA4 (Homo sapiens, UniProt O75676); experiment: Proqinase Kinase profiling; conditions: read-out: % inhibition at 100nM
T33 construct: purchased DiscoverX

[34] = target: T34, ERBB4 (Homo sapiens, UniProt Q15303); experiment: Proqinase Kinase profiling; conditions: read-out: % inhibition at 100nM
T34 construct: purchased DiscoverX
T34 sequence (Q15303 26-1308): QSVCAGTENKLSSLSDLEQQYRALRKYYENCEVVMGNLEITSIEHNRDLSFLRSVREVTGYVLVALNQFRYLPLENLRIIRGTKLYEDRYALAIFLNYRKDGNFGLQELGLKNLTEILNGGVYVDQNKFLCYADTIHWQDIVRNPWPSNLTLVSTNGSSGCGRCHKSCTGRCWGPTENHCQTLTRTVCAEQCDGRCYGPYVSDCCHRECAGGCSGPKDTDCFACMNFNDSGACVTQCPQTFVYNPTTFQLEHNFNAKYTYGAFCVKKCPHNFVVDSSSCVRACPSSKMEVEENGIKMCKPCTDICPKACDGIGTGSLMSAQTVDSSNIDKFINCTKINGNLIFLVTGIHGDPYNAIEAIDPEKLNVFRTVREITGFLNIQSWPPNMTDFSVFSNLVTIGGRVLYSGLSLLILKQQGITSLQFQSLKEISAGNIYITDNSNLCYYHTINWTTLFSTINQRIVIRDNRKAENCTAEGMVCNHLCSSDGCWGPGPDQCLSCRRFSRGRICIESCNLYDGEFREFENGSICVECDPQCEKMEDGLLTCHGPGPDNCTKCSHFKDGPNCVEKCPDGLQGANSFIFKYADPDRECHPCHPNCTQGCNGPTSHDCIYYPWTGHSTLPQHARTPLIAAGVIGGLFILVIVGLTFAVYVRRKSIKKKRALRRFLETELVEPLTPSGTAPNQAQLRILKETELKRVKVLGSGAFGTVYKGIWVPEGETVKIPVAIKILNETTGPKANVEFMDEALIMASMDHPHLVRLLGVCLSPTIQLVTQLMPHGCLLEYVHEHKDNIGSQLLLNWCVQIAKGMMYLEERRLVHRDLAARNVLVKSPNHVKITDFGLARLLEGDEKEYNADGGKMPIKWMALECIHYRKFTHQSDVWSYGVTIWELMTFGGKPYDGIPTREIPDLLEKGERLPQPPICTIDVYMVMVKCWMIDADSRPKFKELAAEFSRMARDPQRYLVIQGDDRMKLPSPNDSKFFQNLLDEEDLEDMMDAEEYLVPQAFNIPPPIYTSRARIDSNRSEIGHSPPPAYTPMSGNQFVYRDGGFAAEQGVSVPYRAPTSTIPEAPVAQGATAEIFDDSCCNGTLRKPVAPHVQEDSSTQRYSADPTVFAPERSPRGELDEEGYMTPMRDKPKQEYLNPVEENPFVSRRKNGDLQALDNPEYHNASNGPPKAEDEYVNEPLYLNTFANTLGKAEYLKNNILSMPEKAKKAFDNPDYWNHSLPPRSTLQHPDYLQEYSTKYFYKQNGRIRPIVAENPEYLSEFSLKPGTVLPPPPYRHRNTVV

[35] = target: T35, KIT_V559D_V654A (Homo sapiens, UniProt P10721, V559D/V654A); experiment: Proqinase Kinase profiling; conditions: read-out: % inhibition at 100nM
T35 construct: purchased DiscoverX

[36] = target: T36, EEF2K (Homo sapiens, UniProt O00418); experiment: Proqinase Kinase profiling; conditions: read-out: % inhibition at 100nM
T36 construct: purchased DiscoverX

[37] = target: T37, LYN (Homo sapiens, UniProt P07948); experiment: Proqinase Kinase profiling; conditions: read-out: % inhibition at 100nM
T37 construct: purchased DiscoverX

[38] = target: T38, EGFR_L747-S752del_P753S (Homo sapiens, UniProt P00533, DEL747-752/P753S); experiment: Proqinase Kinase profiling; conditions: read-out: % inhibition at 100nM
T38 construct: purchased DiscoverX

[39] = target: T39, EPHA7 (Homo sapiens, UniProt Q15375); experiment: Proqinase Kinase profiling; conditions: read-out: % inhibition at 100nM
T39 construct: purchased DiscoverX

[40] = target: T40, YES1 (Homo sapiens, UniProt P07947); experiment: Proqinase Kinase profiling; conditions: read-out: % inhibition at 100nM
T40 construct: purchased DiscoverX

[41] = target: T41, EPHB4 (Homo sapiens, UniProt P54760); experiment: Proqinase Kinase profiling; conditions: read-out: % inhibition at 100nM
T41 construct: purchased DiscoverX

[42] = target: T42, ERBB2 (Homo sapiens, UniProt P04626); experiment: Proqinase Kinase profiling; conditions: read-out: % inhibition at 100nM
T42 construct: purchased DiscoverX
T42 sequence (P04626 23-1255): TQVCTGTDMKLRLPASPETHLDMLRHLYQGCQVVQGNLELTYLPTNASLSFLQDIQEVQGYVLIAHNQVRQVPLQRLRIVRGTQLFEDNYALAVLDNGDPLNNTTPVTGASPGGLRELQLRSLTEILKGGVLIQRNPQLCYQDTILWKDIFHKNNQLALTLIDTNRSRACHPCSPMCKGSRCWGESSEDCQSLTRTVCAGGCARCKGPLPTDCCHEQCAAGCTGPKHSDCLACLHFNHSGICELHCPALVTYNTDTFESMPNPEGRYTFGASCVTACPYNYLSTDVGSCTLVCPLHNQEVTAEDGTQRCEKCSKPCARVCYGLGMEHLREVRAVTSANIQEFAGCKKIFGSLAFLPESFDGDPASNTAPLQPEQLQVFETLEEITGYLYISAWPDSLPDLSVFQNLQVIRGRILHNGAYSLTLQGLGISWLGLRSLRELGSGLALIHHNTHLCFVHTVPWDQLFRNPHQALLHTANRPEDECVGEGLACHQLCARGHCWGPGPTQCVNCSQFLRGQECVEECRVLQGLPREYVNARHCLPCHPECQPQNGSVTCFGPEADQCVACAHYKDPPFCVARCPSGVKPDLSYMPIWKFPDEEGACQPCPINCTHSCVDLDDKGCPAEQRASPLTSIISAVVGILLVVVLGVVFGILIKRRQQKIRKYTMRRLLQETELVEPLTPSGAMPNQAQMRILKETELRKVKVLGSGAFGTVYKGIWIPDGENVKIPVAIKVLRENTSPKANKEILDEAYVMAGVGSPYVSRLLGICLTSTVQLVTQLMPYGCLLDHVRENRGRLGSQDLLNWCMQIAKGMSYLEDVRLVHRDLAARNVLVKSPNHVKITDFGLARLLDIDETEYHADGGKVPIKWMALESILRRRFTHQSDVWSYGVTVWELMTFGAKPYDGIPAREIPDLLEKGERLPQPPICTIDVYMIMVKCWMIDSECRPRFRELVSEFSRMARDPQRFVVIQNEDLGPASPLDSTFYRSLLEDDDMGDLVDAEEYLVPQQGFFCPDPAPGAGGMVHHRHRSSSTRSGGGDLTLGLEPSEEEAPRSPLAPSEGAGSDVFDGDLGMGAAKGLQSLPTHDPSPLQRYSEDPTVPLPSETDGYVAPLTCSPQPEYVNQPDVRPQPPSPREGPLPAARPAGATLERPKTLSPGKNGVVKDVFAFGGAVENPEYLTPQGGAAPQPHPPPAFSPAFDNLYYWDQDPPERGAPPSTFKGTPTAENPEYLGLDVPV

[43] = tested on: panel of 366–468 kinases; experiment: Kinase panel selectivity; conditions: compound at 100nM
Source text: Figure 4 ALK2 binding and kinase profile of OD36 and OD52.

## Clc1cc2cc(c1)-c1cnn3ccc(nc13)NCCOCCO2 [OD36]
[1]
  inhibition at 0.1 µM: 45%
[2]
  inhibition at 0.1 µM: 16%
[3]
  inhibition at 0.1 µM: 56%
[4]
  inhibition at 0.1 µM: -6%
[5]
  inhibition at 0.1 µM: 10%
[6]
  inhibition at 0.1 µM: 6%
[7]
  inhibition at 0.1 µM: 7%
[8]
  inhibition at 0.1 µM: 9%
[9]
  inhibition at 0.1 µM: 22%
[10]
  inhibition at 0.1 µM: 7%
[11]
  inhibition at 0.1 µM: 8%
[12]
  inhibition at 0.1 µM: -3%
[13]
  inhibition at 0.1 µM: 14%
[14]
  inhibition at 0.1 µM: 14%
[15]
  inhibition at 0.1 µM: 15%
[16]
  inhibition at 0.1 µM: 3%
[17]
  inhibition at 0.1 µM: 4%
[18]
  inhibition at 0.1 µM: 17%
[19]
  inhibition at 0.1 µM: 12%
[20]
  inhibition at 0.1 µM: 18%
[21]
  inhibition at 0.1 µM: 10%
[22]
  inhibition at 0.1 µM: 2%
[23]
  inhibition at 0.1 µM: 8%
[24]
  inhibition at 0.1 µM: 8%
[25]
  inhibition at 0.1 µM: 14%
[26]
  inhibition at 0.1 µM: 23%
[27]
  inhibition at 0.1 µM: 33%
[28]
  inhibition at 0.1 µM: 6%
[29]
  inhibition at 0.1 µM: 11%
[30]
  inhibition at 0.1 µM: 10%
[31]
  inhibition at 0.1 µM: 19%
[32]
  inhibition at 0.1 µM: 6%
[33]
  inhibition at 0.1 µM: 19%
[34]
  inhibition at 0.1 µM: 12%
[35]
  inhibition at 0.1 µM: -2%
[36]
  inhibition at 0.1 µM: -9%
[37]
  inhibition at 0.1 µM: 43%
[38]
  inhibition at 0.1 µM: 10%
[39]
  inhibition at 0.1 µM: 23%
[40]
  inhibition at 0.1 µM: 28%
[41]
  inhibition at 0.1 µM: 6%
[42]
  inhibition at 0.1 µM: 0%
[43]
  Selectivity: % of tested kinases inhibited over 50%: 4.3%

## Cc1cc2cc(c1)-c1cnn3ccc(nc13)NCCNC(=O)CCN(C)C2 [OD52]
[1]
  inhibition at 0.1 µM: 37%
[2]
  inhibition at 0.1 µM: 22%
[3]
  inhibition at 0.1 µM: 16%
[4]
  inhibition at 0.1 µM: 11%
[5]
  inhibition at 0.1 µM: 10%
[6]
  inhibition at 0.1 µM: 8%
[7]
  inhibition at 0.1 µM: 6%
[8]
  inhibition at 0.1 µM: 6%
[9]
  inhibition at 0.1 µM: 6%
[10]
  inhibition at 0.1 µM: 5%
[11]
  inhibition at 0.1 µM: 5%
[12]
  inhibition at 0.1 µM: 4%
[13]
  inhibition at 0.1 µM: 4%
[14]
  inhibition at 0.1 µM: 3%
[15]
  inhibition at 0.1 µM: 3%
[16]
  inhibition at 0.1 µM: 2%
[17]
  inhibition at 0.1 µM: 2%
[18]
  inhibition at 0.1 µM: 1%
[19]
  inhibition at 0.1 µM: 0%
[20]
  inhibition at 0.1 µM: -1%
[21]
  inhibition at 0.1 µM: -1%
[22]
  inhibition at 0.1 µM: -2%
[23]
  inhibition at 0.1 µM: -3%
[24]
  inhibition at 0.1 µM: -3%
[25]
  inhibition at 0.1 µM: -3%
[26]
  inhibition at 0.1 µM: -4%
[27]
  inhibition at 0.1 µM: -4%
[28]
  inhibition at 0.1 µM: -4%
[29]
  inhibition at 0.1 µM: -5%
[30]
  inhibition at 0.1 µM: -5%
[31]
  inhibition at 0.1 µM: -5%
[32]
  inhibition at 0.1 µM: -7%
[33]
  inhibition at 0.1 µM: -8%
[34]
  inhibition at 0.1 µM: -10%
[35]
  inhibition at 0.1 µM: -12%
[36]
  inhibition at 0.1 µM: -13%
[37]
  inhibition at 0.1 µM: -14%
[38]
  inhibition at 0.1 µM: -15%
[39]
  inhibition at 0.1 µM: -18%
[40]
  inhibition at 0.1 µM: -22%
[41]
  inhibition at 0.1 µM: -25%
[42]
  inhibition at 0.1 µM: -44%
[43]
  Selectivity: % of tested kinases inhibited over 50%: 0.9%
